According to patent US20240383904A1, “HETEROCYCLIC COMPOUNDS” (Hoffmann-La Roche Inc., priority 2021, published 2024):

Target: T1, MAGL (Homo sapiens, UniProt Q99685)
T1 sequence (Q99685 1-303): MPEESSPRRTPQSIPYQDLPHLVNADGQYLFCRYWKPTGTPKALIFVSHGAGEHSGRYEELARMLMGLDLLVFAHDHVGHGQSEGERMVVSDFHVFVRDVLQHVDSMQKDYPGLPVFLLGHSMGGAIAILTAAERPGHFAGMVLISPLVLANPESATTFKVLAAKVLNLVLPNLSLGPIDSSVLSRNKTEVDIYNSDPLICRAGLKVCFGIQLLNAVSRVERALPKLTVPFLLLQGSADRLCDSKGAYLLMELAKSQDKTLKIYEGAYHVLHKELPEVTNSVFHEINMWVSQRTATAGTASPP
Test: 2-AG assay: MAGL inhibitory activity by hydrolysis of 2-arachidonoylglycerol to arachidonic acid, followed by mass spectrometry
Assay type: biochemical
Conditions: 15 min preincubation, 30 min reaction at RT, 8 μM 2-arachidonoylglycerol
Source text: Compounds of formula (I) were profiled for MAGL inhibitory activity by determining the enzymatic activity by following the hydrolysis of the natural substrate 2-arachidonoylglycerol (2-AG) resulting in arachidonic acid, which can be followed by mass spectrometry. This assay is hereinafter abbreviated “2-AG assay”.
Compounds of formula (I) were profiled for MAGL inhibitory activity by determining the enzymatic activity by following the hydrolysis of the natural substrate 2-arachidonoylglycerol (2-AG) resulting in arachidonic acid, which can be followed by mass spectrometry. This assay is hereinafter abbreviated “2-AG assay”. The 2-AG assay was carried out in 384 well polypropylene assay plates. Compound dilutions were made in 100% DMSO in a polypropylene plate in 3-fold dilution steps to give a final concentration range in the assay from 12.5 μM to […]. Compound dilutions were added to MAGL protein in assay buffer (50 mM TRIS, 1 mM EDTA, 0.01% (v/v) Tween-20, 2.5% (v/v) DMSO). After shaking, the plate was incubated for 15 min at RT. To start the reaction, 2-arachidonoylglycerol in assay buffer was added. The final concentrations in the assay was […] for MAGL protein and 8 μM 2-arachidonoylglyerol. After shaking and 30 min incubation at RT, the reaction was quenched by the addition of two assay volumes of acetonitrile containing 4 μM of d8-arachidonic acid. The amount of arachidonic acid formed was traced by an online SPE system (Agilent Rapidfire) coupled to a triple quadrupole mass spectrometer. A C18 SPE cartridge (Agilent G9205A) was used in an acetonitrile/water liquid setup. The mass spectrometer was operated in negative electrospray mode following the mass transitions 303.1→259.1 for arachidonic acid and 311.1→267.0 for d8-arachidonic acid. The activity of the compounds was calculated based on the ratio of intensities [arachidonic acid/d 8-arachidonic acid].

**Q.** For O=C1CCC2(CN(C(=O)N3CC4(CC(Cc5ncc(C(F)(F)F)cn5)C4)C3)C2)N1 [Example 19, 2-[6-[[5-(trifluoromethyl)pyrimi-din-2-yl]methyl]-2-azaspiro[3.3]heptane-2-carbonyl]-2,5-diazaspiro[3.4]octan-6-one], which IC50 is on record?
**A.** 7 nM

**Q.** How did the IC50 turn out when O=C1CCC2(CN(C(=O)N3CC4(CC(Cc5cccc(S(=O)(=O)C(F)(F)F)c5)C4)C3)C2)N1 [Example 360, 2-[6-(3-triflylbenzyl)-2-azaspiro[3.3]heptane-2-carbonyl]-2,5-diazaspiro[3.4]octan-6-one] was run?
**A.** 0.2 nM

**Q.** With O=C1CCC2(CN(C(=O)N3CC4(CN(Cc5nc(C(F)(F)F)cs5)C4)C3)C2)N1 [Example 306, 2-[6-[[4-(trifluoromethyl)thiazol-2-yl]methyl]-2,6-diazaspiro[3.3]heptane-2-carbonyl]-2,5-diazaspiro[3.4]octan-6-one] as the compound, how does the IC50 read?
**A.** 287 nM

**Q.** Which IC50 does the source give for O=C1CCC2(CN(C(=O)N3CC4(CC(S(=O)(=O)c5cccc(OC(F)(F)F)c5)C4)C3)C2)N1 [Example 280, 2-[6-[3-(trifluoromethoxy)phenyl]sulfonyl-2-azaspiro[3.3]heptane-2-carbonyl]2,5-diazaspiro[3.4]octan-6-one] here?
**A.** 195 nM

**Q.** For O=C1COCC2(CN(C(=O)N3CC4(CCC(Cc5cnc(C(F)(F)F)cn5)CC4)C3)C2)N1 [Example 226, 2-[7-[[5-(trifluoromethyl)pyrazin-2-yl]methyl]-2-azaspiro[3.5]nonane-2-carbonyl]-8-oxa-2,5-diazaspiro[3.5]nonan-6-one], which IC50 is on record?
**A.** 45.9 nM

**Q.** N=[S@@](=O)(c1ccc(CC2CC3(C2)CN(C(=O)N2CC4(COCC(=O)N4)C2)C3)cc1)C(F)(F)F [Example 288, 2-[6-[[4-(trifluoromethylsulfoni-midoyl)phenyl]methyl]-2-azaspiro[3.3]heptane-2-carbonyl]-8-oxa-2,5-diazaspiro[3.5]nonan-6-one] was tested. Which IC50 did it give?
**A.** 8.91 nM

**Q.** With N=[S@](=O)(c1ccc(CC2CC3(C2)CN(C(=O)N2CC4(COC(=O)N4)C2)C3)cc1)C(F)(F)F [Example 359] as the compound, how does the IC50 read?
**A.** 0.32 nM

**Q.** For O=C1NC2(CO1)CN(C(=O)N1CC3(C1)CN(c1ccc(C(F)(F)F)cn1)C3)C2 [Example 202, 2-[6-[5-(trifluoromethyl)-2-pyridyl]-2,6-diazaspiro[3.3]heptane-2-carbonyl]-7-oxa-2,5-diazaspiro[3.4]octan-6-one], which IC50 is on record?
**A.** 61.4 nM

**Q.** For O=C1COCC2(CN(C(=O)N3CC4(CC(Cc5ccc(F)cc5C(F)(F)F)C4)C3)C2)N1 [Example 143], which IC50 is on record?
**A.** 0.07 nM

**Q.** How did the IC50 turn out when O=C1CCC2(CN(C(=O)N3CC4(CC[C@H](Cc5ccc(S(=O)(=O)C(F)(F)F)cc5)C4)C3)C2)N1 [Example 221, 2-[(6R)-6-[[4-(trifluoromethylsulfonyl)phenyl]methyl]-2-azaspiro[3.4]octane-2-carbonyl]-2,5-diazaspiro[3.4]octan-6-one] was run?
**A.** 1.31 nM

**Q.** For CP(C)(=O)c1ccc(CC2CC3(C2)CN(C(=O)N2CC4(CCC(=O)N4)C2)C3)c(F)c1 [Example 336, 2-[6-(4-dimethylphosphoryl-2-fluoro-benzyl)-2-azaspiro[3.3]heptane-2-carbonyl]-2,5-diazaspiro[3.4]octan-6-one], which IC50 is on record?
**A.** 146 nM

**Q.** For O=C1NCC2(CN(C(=O)N3CC4(CCC(OCC5(C(F)(F)F)CC5)CC4)C3)C2)N1 [Example 127, 2-[7-[[1-(trifluoromethyl)cyclopro-pyl]methoxy]-2-azaspiro[3.5]nonane-2-carbonyl]-2,5,7-triazaspiro[3.4]octan-6-one], which IC50 is on record?
**A.** 30.8 nM

**Q.** For O=C1CCC2(CN(C(=O)N3CC4(CC(Cn5ccc(C(F)(F)F)cc5=O)C4)C3)C2)N1 [Example 249, 2-[6-[[2-oxo-4-(trifluoromethyl)-1-pyridyl]methyl]-2-azaspiro[3.3]heptane-2-carbonyl]-2,5-diazaspiro[3.4]octan-6-one], which IC50 is on record?
**A.** 2.16 nM

**Q.** How did the IC50 turn out when O=C1CCC2(CN(C(=O)N3CC4(CCC(Cc5nnc(C(F)(F)F)[nH]5)CC4)C3)C2)N1 [Example 323, 2-[7-[[5-(trifluoromethyl)-4H-1,2,4-triazol-3-yl]methyl]-2-azaspiro[3.5]nonane-2-carbonyl]-2,5-diazaspiro[3.4]octan-6-one] was run?
**A.** 0.17 nM

**Q.** For O=C1CCC2(CN(C(=O)N3CC4(CCC(Cc5ccc(OC(F)F)nc5)CC4)C3)C2)N1 [Example 121, 2-[7-[[6-(difluoromethoxy)-3-pyridyl]methyl]-2-azaspiro[3.5]nonane-2-carbonyl]-2,5-diazaspiro[3.4]octan-6-one], which IC50 is on record?
**A.** 4.19 nM

**Q.** How did the IC50 turn out when O=C1CCC2(CN(C(=O)N3CC4(CCN(Cc5ncc(C(F)F)s5)CC4)C3)C2)N1 [Example 348, 2-[7-[[5-(difluoromethyl)thiazol-2-yl]methyl]-2,7-diazaspiro[3.5]nonane-2-carbonyl]-2,5-diazaspiro[3.4]octan-6-one] was run?
**A.** 90.9 nM

**Q.** O=C1NC2(CO1)CN(C(=O)N1CC3(CCC(Cc4ccc(C(F)(F)F)nc4)CC3)C1)C2 [Example 101, 2-[7-[[6-(trifluoromethyl)-3-pyridyl]methyl]-2-azaspiro[3.5]nonane-2-carbonyl]-7-oxa-2,5-diazaspiro[3.4]octan-6-one] was tested. Which IC50 did it give?
**A.** 0.18 nM

**Q.** Which IC50 does the source give for O=C1NC2(CO1)CN(C(=O)N1CC3(C1)CN(S(=O)(=O)NCC1(C(F)(F)F)CC1)C3)C2 [Example 197, 6-(6-oxo-7-oxa-2,5-diazaspiro[3.4]octane-2-carbonyl)-N-[[1-(trifluoromethyl)cyclopro-pyl]methyl]-2,6-diazaspiro[3.3]heptane-2-sulfonamide] here?
**A.** 4.39 nM

**Q.** N=[S@@](=O)(c1ccc(CC2CC3(C2)CN(C(=O)N2CC4(COC(=O)N4)C2)C3)cc1)C(F)(F)F [Example 358, 2-[6-[4-(trifluoromethylsulfoni-midoyl)benzyl]-2-azaspiro[3.3]heptane-2-carbonyl]-7-oxa-2,5-diazaspiro[3.4]octan-6-one] was tested. Which IC50 did it give?
**A.** 0.26 nM

**Q.** For O=C1NC2(CO1)CN(C(=O)N1CC3(CC(c4cncc(F)c4)C3)C1)C2 [Example 126, 2-[6-(5-fluoro-3-pyridyl)-2-azaspiro[3.3]heptane-2-carbonyl]-7-oxa-2,5-diazaspiro[3.4]octan-6-one], which IC50 is on record?
**A.** 21.3 nM

**Q.** With O=C1COCC2(CN(C(=O)N3CC4(CC(Cc5ncc(C(F)(F)F)cc5F)C4)C3)C2)N1 [Example 171, 2-[6-[[3-fluoro-5-(trifluoromethyl)-2-pyridyl]methyl]-2-azaspiro[3.3]heptane-2-carbonyl]-8-oxa-2,5-diazaspiro[3.5]nonan-6-one] as the compound, how does the IC50 read?
**A.** 1.42 nM

**Q.** How did the IC50 turn out when N=[S@](=O)(c1cccc(CC2CC3(C2)CN(C(=O)N2CC4(CCC(=O)N4)C2)C3)c1)C(F)(F)F [Example 292, 2-[6-[[3-(trifluoromethylsulfoni-midoyl)phenyl]methyl]-2-azaspiro[3.3]heptane-2-carbonyl]-2,5-diazaspiro[3.4]octan-6-one] was run?
**A.** 1.29 nM

**Q.** O=C1COCC2(CN(C(=O)N3CC4(CC(Cn5cc(C(F)(F)F)cn5)C4)C3)C2)N1 [Example 230, 2-[6-[[4-(trifluoromethyl)pyrazol-1-yl]methyl]-2-azaspiro[3.3]heptane-2-carbonyl]-8-oxa-2,5-diazaspiro[3.5]nonan-6-one] was tested. Which IC50 did it give?
**A.** 59 nM

**Q.** N=[S@@](=O)(c1ccc(CC2CC3(C2)CN(C(=O)N2CC4(CCCC(=O)N4)C2)C3)cc1)C(F)(F)F (single isomer, unassigned) [Example 284, 2-[6-[[4-(trifluoromethylsulfoni-midoyl)phenyl]methyl]-2-azaspiro[3.3]heptane-2-carbonyl]-2,5-diazaspiro[3.5]nonan-6-one] was tested. Which IC50 did it give?
**A.** 120 nM

**Q.** For N#Cc1ccc(CC2CC3(C2)CN(C(=O)N2CC4(CCC(=O)N4)C2)C3)c(F)c1 [Example 251, 3-fluoro-4-[[2-(6-oxo-2,5-diazaspiro[3.4]octane-2-carbonyl)-2-azaspiro[3.3]heptan-6-yl]methyl]benzonitrile], which IC50 is on record?
**A.** 0.6 nM

**Q.** How did the IC50 turn out when O=C1CCC2(CN(C(=O)N3CC4(CCN(Cc5cc(C(F)(F)F)on5)CC4)C3)C2)N1 [Example 338, 2-[7-[[5-(trifluoromethyl)isoxazol-3-yl]methyl]-2,7-diazaspiro[3.5]nonane-2-carbonyl]-2,5-diazaspiro[3.4]octan-6-one] was run?
**A.** 178 nM

**Q.** For CS(=O)(=O)c1cc(C(F)(F)F)ccc1CC1CC2(C1)CN(C(=O)N1CC3(CCCC(=O)N3)C1)C2 [Example 185, 2-[6-[[2-methylsulfonyl-4-(trifluoromethyl)phenyl]methyl]-2-azaspiro[3.3]heptane-2-carbonyl]-2,5-diazaspiro[3.5]nonan-6-one], which IC50 is on record?
**A.** 34.5 nM

**Q.** How did the IC50 turn out when O=C1NC2(CO1)CN(C(=O)N1CC3(CCC(Nc4cnc(C(F)(F)F)cn4)CC3)C1)C2 [Example 98, 2-[7-[[5-(trifluoromethyl)pyrazin-2-yl]amino]-2-azaspiro[3.5]nonane-2-carbonyl]-7-oxa-2,5-diazaspiro[3.4]octan-6-one] was run?
**A.** 1.75 nM
